Measurements: ChEMBL document CHEMBL5608141, “Identification of compartment-specific drug sensitivities in CRC organoid-stroma co-cultures” (2024)

Experiments:
Type in all cases: functional, Homo sapiens
Design in all cases: dose or concentration left out as unconfirmed
Colon cancer organoid [1] = assay: Identification of compartment-specific drug sensitivities in O06 CRC organoid-stroma F06 CAF co-cultures. Organoid is transduced with Lucferase2-P2A-EGFP lentivirus, fibroblast with Renilla-dsRed lentivirus. Dual-Glo Luciferase assay is used to report viability data.
Colon cancer organoid [2] = assay: Identification of compartment-specific drug sensitivities in O20 CRC organoid-stroma F20 CAF co-cultures. Organoid is transduced with Lucferase2-P2A-EGFP lentivirus, fibroblast with Renilla-dsRed lentivirus. Dual-Glo Luciferase assay is used to report viability data.
Colon cancer organoid [3] = assay: Identification of compartment-specific drug sensitivities in O14 CRC organoid-stroma F14 CAF co-cultures. Organoid is transduced with Lucferase2-P2A-EGFP lentivirus, fibroblast with Renilla-dsRed lentivirus. Dual-Glo Luciferase assay is used to report viability data.
[4] = Transduced with Lucferase2-P2A-EGFP lentivirus
[5] = Transduced with Renilla-dsRed lentivirus

Structure (SMILES)	Cell Viability (Colon cancer organoid [1]; [4])	Cell Viability (Colon cancer organoid [1]; [5])	Cell Viability (Colon cancer organoid [2]; [4])	Cell Viability (Colon cancer organoid [2]; [5])	Cell Viability (Colon cancer organoid [3]; [4])	Cell Viability (Colon cancer organoid [3]; [5])
Cc1c(NC(=O)c2ccc(C(C)(C)C)cc2)cccc1-c1cn(C)c(=O)c(Nc2ccc(C(=O)N3CCOCC3)cc2)n1	105.279%	113.435%	110.349%	88.3582%	92.1091%	94.7887%
Cc1sc2c(c1C)C(c1ccc(Cl)cc1)=N[C@@H](CC(=O)OC(C)(C)C)c1nnc(C)n1-2	24.0633%	301.325%	11.1793%	145.881%	31.858%	201.171%
COc1cc2c(cc1-c1c(C)noc1C)ncc1[nH]c(=O)n([C@H](C)c3ccccn3)c12	43.5488%	325.273%	26.1265%	172.215%	55.7493%	184.963%
CCCc1cc(C)[nH]c(=O)c1CNC(=O)c1cc(-c2ccnc(N3CCN(C)CC3)c2)cc2c1cnn2C(C)C	75.6598%	125.188%	56.2508%	146.305%	87.4027%	100.827%
CCCCNc1ncc(-c2ccc(CN3CCOCC3)cn2)c(N[C@H]2CC[C@H](O)CC2)n1	22.8495%	123.664%	8.867%	223.767%	12.9881%	77.7799%
CC(C)NC(=O)N1CC[C@H](NC2=Nc3cc(F)ccc3N(CC(F)F)c3ccc(Cl)cc32)C1	50.3719%	97.5535%	55.1322%	142.836%	92.2307%	99.3787%
CN1CCN(c2ccc(-c3cccc(CN4CCOCC4)c3)cc2NC(=O)c2c[nH]c(=O)cc2C(F)(F)F)CC1	91.1397%	122.014%	82.8822%	116.555%	95.9628%	85.2187%
CNCCN1CCC(OCc2ccccc2)CC1	118.085%	144.179%	15.2261%	211.667%	40.9856%	114.707%
Cn1c(=O)[nH]c2cc(N3C(=O)c4cccc5c(CCCO)ccc(c45)C3=O)ccc21	115.119%	110.623%	127.541%	89.8045%	148.781%	92.4291%
CN(C)[C@H]1CN(C2CCc3cccc(F)c32)C[C@@H]1c1ccc(N2CCN(S(C)(=O)=O)CC2)cc1 (some centres not stated)	82.1891%	127.07%	31.9931%	145.189%	77.8807%	109.764%
CC1(C)C(N)=Nc2cc(OCCCN3Cc4ccc(OCCc5cn(CC(=O)N6CCC(CCN7CCCC7)CC6)nn5)cc4C3)c(OCC3CC3)cc21	85.8179%	109.54%	95.5615%	161.052%	112.775%	105.217%
CC1(C)C(N)=Nc2cc(OCCCCN3Cc4ccc(OCc5cn(CC(=O)N6CCC(CCN7CCCC7)CC6)nn5)cc4C3)c(OCC3CC3)cc21	65.2251%	114.368%	70.7317%	125.652%	112.762%	94.6071%
CN(C)C(=O)Cn1cc(-c2ccc(-c3cncc4ccccc34)cc2)cn1	83.3121%	47.4852%	98.3492%	25.8647%	88.4928%	18.4119%
CC(C)(O)[C@H](F)CN1Cc2cc(NC(=O)c3cnn4cccnc34)c(N3CCOCC3)cc2C1=O	120.796%	89.8431%	123.644%	88.3121%	105.194%	83.4987%
CN1CCN(Cc2cc(NC(=O)c3ccc4c(c3)CN(c3ccccc3)CC4)cc(C(F)(F)F)c2)CC1	105.854%	147.303%	90.0307%	84.0381%	122.837%	90.754%
Cc1cn(-c2cc(NC(=O)c3ccc4c(c3)CN(c3cncnc3)C[C@@H]4C)cc(C(F)(F)F)c2)cn1	82.9908%	122.253%	88.3808%	107.854%	141.09%	97.6954%

Structure (SMILES)	Cell Viability (Colon cancer organoid [1]; [4])	Cell Viability (Colon cancer organoid [1]; [5])	Cell Viability (Colon cancer organoid [2]; [4])	Cell Viability (Colon cancer organoid [2]; [5])	Cell Viability (Colon cancer organoid [3]; [4])	Cell Viability (Colon cancer organoid [3]; [5])
Cc1cccc(-c2cnc3occ(-c4ccc(C(=O)O)c(C5CCCC5)c4)c3c2)c1	94.5335%	126.561%	88.6258%	133.429%	146.067%	87.0815%
O=C(NCCCN1CCOC1=O)c1cnc(NCc2cc(Br)ccc2Br)nc1NC1CCCC1	72.4903%	99.9468%	103.947%	94.0994%	120.927%	72.8786%
COc1ccccc1-c1cc(N2CCN(C(=O)OC(C)(C)C)CC2)c(N)nn1	99.4085%	102.712%	123.55%	160.936%	120.209%	94.5585%
O=C(O)c1ccc(-c2coc3ncc(-c4ccccc4)cc23)cc1Cl	84.9927%	102.883%	189.357%	126.188%	182.141%	68.2046%
Cc1ccc2nc(NCCN)c3ncc(C)n3c2c1.O=C(O)C(F)(F)F.O=C(O)C(F)(F)F	94.0156%	112.188%	234.528%	67.6056%	111.823%	88.3847%
CN(C(=O)c1cnn2cccnc12)c1cc2c(cc1N1CCOCC1)C(=O)N(C[C@@H](F)C(C)(C)O)C2	93.6773%	65.3185%	85.5909%	89.8275%	98.5166%	101.353%
c1ccc(C2CCN(c3cnc4c(N5CCOCC5)nccn34)CC2)cc1	25.484%	144.176%	90.2822%	108.246%	130.379%	77.7891%
CN(C)C(=O)Cn1cc(-c2ccc(-c3nnc4ccccn34)cc2)cn1	105.212%	110.192%	167.784%	52.6743%	99.1399%	78.8551%
CN(C)C(=O)N1CC[C@H](NC2=Nc3cc(F)ccc3N(CC(F)F)c3ccc(Cl)cc32)C1	22.5333%	79.8107%	71.357%	98.2431%	119.43%	91.6025%
CCn1c(-c2nc3cc(C(=O)N4CCCC(N)C4)ccc3n2C)cc2ccccc21.Cl (configuration not stated)	115.054%	117.733%	133.825%	136.72%	132.628%	112.241%
CCOc1ccc(S(=O)(=O)Nc2ccc(Cl)cc2C#Cc2cnc(C(=O)[O-])cc2OC)c2ncccc12.[K+]	117.764%	113.31%	110.493%	117.362%	103.028%	89.48%
Cc1cc(CN)cc(C)c1-c1ncn(C)c1-c1ccnc2cc(F)ccc12.Cl	105.057%	123.721%	144.981%	87.6481%	138.136%	105.376%
CC1=CC(C)=[N+]2C1=C(CCCCc1cn(CC(=O)N3CCc4nc(NC(=O)[C@H]5CCN(C#N)C5)sc4C3)nn1)c1c(C)cc(C)n1[B-]2(F)F	125.029%	111.523%	77.3724%	101.216%	84.8013%	97.3387%
COc1cc(OC)cc(-c2noc(N3CCN(C)C4(CCN(c5ccccc5)CC4)C3)n2)c1	67.7845%	115.277%	90.427%	110.491%	135.567%	106.85%
COc1ccccc1C(=O)Nc1cc2c(cc1N1CCNCC1C)n(C)c(=O)n2C (configuration not stated)	112.155%	138.916%	131.273%	107.173%	118.564%	101.199%
COc1cccc2c1C(=O)c1c(O)c3c(c(O)c1C2=O)CC(O)(C(=O)CO)CC3OC1CC(N)C(O)C(C)O1.Cl (configuration not stated)	14.9439%	235.56%	5.3877%	237.178%	3.454%	89.9373%
